The target in test [1] is T1, Oxysterols receptor LXR-beta (Homo sapiens, UniProt P55055).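 Also: agonist activity at LXR measured by a cell-based luminescence readout across a dose range, run as a counterscreen for daf-12 agonists; HEK293 cells with Gal4-LXR fusion and GAL4-driven luciferase reporter; potency for activation of Gal4-LXR reporter so compounds are agonists.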
T1 sequence (P55055 whole entry): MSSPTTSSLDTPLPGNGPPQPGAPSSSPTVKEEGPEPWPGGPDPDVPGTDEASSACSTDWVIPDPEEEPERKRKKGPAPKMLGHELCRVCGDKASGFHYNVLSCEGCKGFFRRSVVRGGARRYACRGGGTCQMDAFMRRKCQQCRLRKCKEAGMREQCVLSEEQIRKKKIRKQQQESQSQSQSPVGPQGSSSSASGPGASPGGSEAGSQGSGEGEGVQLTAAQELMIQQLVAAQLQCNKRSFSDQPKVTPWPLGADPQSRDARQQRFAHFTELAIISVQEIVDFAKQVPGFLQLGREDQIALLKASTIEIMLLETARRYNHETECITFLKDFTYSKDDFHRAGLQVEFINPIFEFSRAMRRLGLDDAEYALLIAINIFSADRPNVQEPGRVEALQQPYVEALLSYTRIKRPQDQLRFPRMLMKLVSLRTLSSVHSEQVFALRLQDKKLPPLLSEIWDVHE
Type of test: functional, cell-based.

The target in test [2] is Nuclear receptor subfamily 5 group A member 2 (Homo sapiens, UniProt O00482). Type of test: functional, cell-based.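 Also: HEK293T cells transfected with LRH-1 and a StAR promoter luciferase reporter; potency for inhibitors that lower LRH-1 driven reporter light.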
The next test concerns the target Steroidogenic factor 1 (Homo sapiens, UniProt Q13285). Briefly: Counterscreen for inverse agonists of the liver receptor homolog-1 (LRH-1; NR5A2): Luminescence-based cell-based high throughput dose response assay to identify inverse agonists of the Steroidogenic Factor 1 Nuclear Receptor (SF1; NR5A1). Type of test: functional. (In general: A counterscreen serves to expose hits that act by an unwanted route or on another target.)

Test [3] can be described thus: nonselective StAR promoter luciferase inhibitors – cell-based, luminescence, luciferase reporter, counter-screen for LRH-1 inverse agonist project, dose response (AID 651969). Type of test: functional.
The nature of test [4]: potency of ADAM10 substrate cleavage blockers – biochemical, QFRET, dose response (AID 743254).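 Also: ADAM10 enzyme with the DM2 quenched FRET peptide as substrate; EDANS fluorescence gain as the protease cuts the substrate; inhibitor potency against ADAM10 proteolytic activity.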
The target of test [5] is T2, Disintegrin and metalloproteinase domain-containing protein 17 (Homo sapiens, UniProt P78536). Briefly: exosite inhibitors of ADAM17, dose response, biochemical (AID 743260).
Test [6] deals with T2, Disintegrin and metalloproteinase domain-containing protein 17. Kind of test: inhibition of ADAM17 substrate cleavage – biochemical, quenched FRET substrate, counter-screen for ADAM10 exosite inhibitor project, dose response (AID 743253).
Test [7] deals with T3, Corticotropin-releasing factor receptor 2/Corticotropin-releasing factor-binding protein (Homo sapiens, UniProt P24387+Q13324).
T3 sequence (Q13324 whole entry): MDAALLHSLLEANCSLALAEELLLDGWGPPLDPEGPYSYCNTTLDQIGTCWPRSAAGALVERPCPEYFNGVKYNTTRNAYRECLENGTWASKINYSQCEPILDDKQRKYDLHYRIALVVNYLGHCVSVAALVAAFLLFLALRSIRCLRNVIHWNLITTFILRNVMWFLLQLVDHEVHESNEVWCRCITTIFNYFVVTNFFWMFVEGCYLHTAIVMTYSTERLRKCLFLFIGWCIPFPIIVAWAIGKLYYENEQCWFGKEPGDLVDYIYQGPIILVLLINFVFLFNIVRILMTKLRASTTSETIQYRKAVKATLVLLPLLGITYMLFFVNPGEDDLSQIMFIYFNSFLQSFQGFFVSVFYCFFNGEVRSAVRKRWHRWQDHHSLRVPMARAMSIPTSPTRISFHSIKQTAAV
T3 sequence (P24387 whole entry): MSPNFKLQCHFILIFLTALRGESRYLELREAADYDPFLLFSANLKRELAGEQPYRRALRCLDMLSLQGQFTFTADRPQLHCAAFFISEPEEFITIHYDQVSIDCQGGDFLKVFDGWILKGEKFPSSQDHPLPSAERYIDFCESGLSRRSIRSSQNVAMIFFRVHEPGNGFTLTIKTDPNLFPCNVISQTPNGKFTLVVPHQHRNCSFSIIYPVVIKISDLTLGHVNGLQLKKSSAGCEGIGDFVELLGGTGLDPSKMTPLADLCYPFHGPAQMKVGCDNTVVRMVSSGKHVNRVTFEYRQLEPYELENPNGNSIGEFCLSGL
Briefly: Dose Response confirmation of uHTS hits for small molecule antagonists of the CRF-binding protein and CRF-R2 receptor complex. Type of test: functional. Particulars: read-out: IC50_Mean.

In test [8] the target is T3, Corticotropin-releasing factor receptor 2/Corticotropin-releasing factor-binding protein. Briefly: activators of CRF receptor 2 with binding protein – uHTS hits, confirmation (AID 602473). Type of test: functional. Particulars: read-out: EC50_Mean.
Test [9] is described as follows: blockers of CRF-binding protein–CRF-R2 complex – cell-based, uHTS hits, 384-well, dose response (AID 651639). Particulars: read-out: IC50_Mean. Type of test: functional, Homo sapiens.
Test [10] is described as follows: luciferase reporter signal suppression in cells – H4 neuroglioma cells, luminescence, dose response (AID 1990). It counts as functional, cell-based.
The test system of test [11] is Streptococcus sp. 'group A'. Briefly: Streptococcus pyogenes SK(-)GAS viability under kanamycin – luminescence, BacTiterGlo, confirmation, counter-screen for streptokinase expression inhibitor project, dose response (AID 1900). Type of test: functional, organism-based.
A short description of test [12]: Luminescence Cell-Based Dose Response HTS to Identify Inhibitors of 5'UTR Stem-Loop Driven Prion Protein mRNA Translation in H4 Neuroglioblastoma Cells. [Related pubchem assays: 1827 (Project Summary), 1813 (Primary HTS)]. It counts as functional.
A short description of test [13]: alpha-synuclein stem-loop luciferase translation blockers – H4 neuroglioma cells, luminescence, confirmation (AID 1988). Type of test: functional, cell-based.
Another test has as its target T4, Streptokinase A (Streptococcus pyogenes serotype M1, UniProt P10520).
T4 sequence (P10520 whole entry): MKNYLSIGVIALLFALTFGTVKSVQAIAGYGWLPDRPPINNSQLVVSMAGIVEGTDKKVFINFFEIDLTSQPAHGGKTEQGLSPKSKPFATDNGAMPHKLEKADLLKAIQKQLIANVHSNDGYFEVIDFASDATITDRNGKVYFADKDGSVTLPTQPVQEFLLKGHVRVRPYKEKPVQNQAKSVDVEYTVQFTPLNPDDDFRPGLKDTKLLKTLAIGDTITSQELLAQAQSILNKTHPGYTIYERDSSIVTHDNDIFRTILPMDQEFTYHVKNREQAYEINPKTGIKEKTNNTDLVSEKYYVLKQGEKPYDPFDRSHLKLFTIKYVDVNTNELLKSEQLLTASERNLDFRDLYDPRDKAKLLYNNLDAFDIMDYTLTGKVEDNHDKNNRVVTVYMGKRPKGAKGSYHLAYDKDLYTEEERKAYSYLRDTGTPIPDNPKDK
Kind of test: viability-normalized secreted streptokinase activity reduction – plasminogen activation absorbance, OD405, dose response (AID 1914).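 Also: secreted streptokinase activity via plasminogen activation per viability signal from cell pellet.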 Type of test: functional, Streptococcus pyogenes M1 GAS.

The subject of a further test is Streptococcus. Briefly: GAS UMAA2166 growth inhibition – luminescence, BacTiterGlo, counter-screen for streptokinase expression inhibitor project, dose response (AID 1915).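 Also: potency for reduction of bacterial viability or growth.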 It counts as functional, organism-based.
Test [14] can be described thus: cells. Type of test: functional, cell-based.
The target of test [15] is T5, Nuclear receptor subfamily 0 group B member 1 (Homo sapiens, UniProt P51843).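 Also: HEK293T cells transfected with SF-1 and DAX-1 plus StAR promoter luciferase reporter.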
T5 sequence (P51843 whole entry): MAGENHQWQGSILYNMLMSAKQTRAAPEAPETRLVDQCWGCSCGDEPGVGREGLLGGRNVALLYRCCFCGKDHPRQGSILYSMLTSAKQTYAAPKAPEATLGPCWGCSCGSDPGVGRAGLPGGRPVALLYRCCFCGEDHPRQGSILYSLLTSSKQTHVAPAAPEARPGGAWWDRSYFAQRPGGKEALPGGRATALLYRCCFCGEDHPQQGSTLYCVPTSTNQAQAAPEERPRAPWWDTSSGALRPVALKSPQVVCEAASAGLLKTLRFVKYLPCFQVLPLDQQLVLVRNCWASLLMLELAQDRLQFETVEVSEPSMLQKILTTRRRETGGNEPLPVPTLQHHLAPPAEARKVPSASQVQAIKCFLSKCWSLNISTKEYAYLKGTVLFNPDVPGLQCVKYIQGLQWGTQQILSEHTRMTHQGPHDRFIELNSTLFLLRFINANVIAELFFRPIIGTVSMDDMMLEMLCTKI
Type of test: functional, cell-based.

The target of another test is T6, Caspase-6 (Homo sapiens, UniProt P55212).
T6 sequence (P55212 whole entry): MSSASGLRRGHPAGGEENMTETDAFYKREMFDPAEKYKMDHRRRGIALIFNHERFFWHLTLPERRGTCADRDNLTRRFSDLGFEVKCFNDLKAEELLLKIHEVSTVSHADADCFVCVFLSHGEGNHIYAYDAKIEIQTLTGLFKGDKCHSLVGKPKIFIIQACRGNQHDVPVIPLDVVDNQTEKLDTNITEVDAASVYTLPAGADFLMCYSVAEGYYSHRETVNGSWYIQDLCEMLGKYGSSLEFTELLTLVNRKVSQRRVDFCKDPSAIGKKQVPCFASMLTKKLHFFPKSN
Kind of test: inhibition of CASP6 peptide cleavage – biochemical, VEID-R110 fluorescence, cherry-pick, dose response (AID 720632).

Test [16] can be described thus: cells. Type of test: functional, cell-based. The source holds these as a separate data set.
Test [17] is described as follows: cells. It counts as functional, cell-based. The source holds these as a separate data set.
The nature of test [18]: inhibition of ADAM10 peptide cleavage – biochemical, FRET peptide substrate, recombinant human ADAM10, selectivity assay for ADAM17 exosite inhibitor project, dose response (AID 743259).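 Also: ADAM10 enzyme cleaving a FRET peptide substrate.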

Calls of active or inactive are those of the source.

As a reminder, the AC50 is the concentration at which the activity in the assay is half-maximal.

Nuclear receptor subfamily 5 group A member 2, sequence (O00482 whole entry): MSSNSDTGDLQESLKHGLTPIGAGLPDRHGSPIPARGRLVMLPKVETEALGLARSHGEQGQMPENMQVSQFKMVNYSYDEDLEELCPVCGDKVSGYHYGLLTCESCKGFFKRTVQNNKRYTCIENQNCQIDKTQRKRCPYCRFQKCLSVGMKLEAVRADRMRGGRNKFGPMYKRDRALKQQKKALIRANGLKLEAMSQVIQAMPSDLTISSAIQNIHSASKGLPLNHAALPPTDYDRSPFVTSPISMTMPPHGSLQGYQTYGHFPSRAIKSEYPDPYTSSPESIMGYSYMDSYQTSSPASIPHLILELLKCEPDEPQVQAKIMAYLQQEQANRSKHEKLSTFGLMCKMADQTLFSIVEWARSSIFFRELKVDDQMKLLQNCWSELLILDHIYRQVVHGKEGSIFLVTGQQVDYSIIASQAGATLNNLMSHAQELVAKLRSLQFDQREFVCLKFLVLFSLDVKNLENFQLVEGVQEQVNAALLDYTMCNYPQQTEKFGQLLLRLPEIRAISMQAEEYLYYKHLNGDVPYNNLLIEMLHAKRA
Steroidogenic factor 1, sequence (Q13285 whole entry): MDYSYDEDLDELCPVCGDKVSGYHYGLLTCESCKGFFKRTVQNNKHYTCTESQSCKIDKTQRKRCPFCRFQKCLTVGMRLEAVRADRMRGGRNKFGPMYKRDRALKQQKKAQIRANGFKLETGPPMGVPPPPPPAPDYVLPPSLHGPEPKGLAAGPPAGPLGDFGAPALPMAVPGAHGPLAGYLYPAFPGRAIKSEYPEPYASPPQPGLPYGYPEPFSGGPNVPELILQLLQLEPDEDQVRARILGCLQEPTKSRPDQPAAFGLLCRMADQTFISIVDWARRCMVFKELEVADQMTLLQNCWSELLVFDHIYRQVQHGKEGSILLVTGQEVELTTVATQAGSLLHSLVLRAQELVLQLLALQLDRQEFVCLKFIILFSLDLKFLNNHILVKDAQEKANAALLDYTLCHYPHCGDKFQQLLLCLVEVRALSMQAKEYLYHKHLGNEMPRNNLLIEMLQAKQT
T2 sequence (P78536 whole entry, the tested form may be a part): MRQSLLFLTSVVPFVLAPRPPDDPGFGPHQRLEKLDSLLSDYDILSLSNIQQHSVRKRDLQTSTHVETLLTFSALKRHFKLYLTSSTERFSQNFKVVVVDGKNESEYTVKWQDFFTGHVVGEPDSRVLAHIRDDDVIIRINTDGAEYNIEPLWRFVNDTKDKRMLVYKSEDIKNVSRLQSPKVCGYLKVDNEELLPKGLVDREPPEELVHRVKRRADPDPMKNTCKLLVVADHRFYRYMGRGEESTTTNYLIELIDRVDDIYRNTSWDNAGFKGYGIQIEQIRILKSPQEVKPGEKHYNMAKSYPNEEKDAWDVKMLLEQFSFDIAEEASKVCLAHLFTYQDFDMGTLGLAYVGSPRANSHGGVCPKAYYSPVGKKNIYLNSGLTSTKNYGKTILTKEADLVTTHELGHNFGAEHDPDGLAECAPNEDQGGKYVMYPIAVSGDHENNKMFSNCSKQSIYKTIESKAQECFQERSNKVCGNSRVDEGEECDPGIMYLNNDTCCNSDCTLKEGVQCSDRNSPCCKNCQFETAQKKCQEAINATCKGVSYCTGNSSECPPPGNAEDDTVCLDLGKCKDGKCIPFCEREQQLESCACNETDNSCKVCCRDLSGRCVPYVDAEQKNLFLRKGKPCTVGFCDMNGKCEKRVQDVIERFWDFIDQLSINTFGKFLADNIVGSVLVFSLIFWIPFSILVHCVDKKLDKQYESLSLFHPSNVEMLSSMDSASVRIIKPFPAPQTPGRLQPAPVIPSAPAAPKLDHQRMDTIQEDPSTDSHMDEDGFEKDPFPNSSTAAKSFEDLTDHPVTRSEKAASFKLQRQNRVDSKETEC

On to `c1csc(-c2nnc(-c3ccc(N4CCOCC4)cc3)o2)c1`, for which the EC50 in test [1] is > 67.5 µM (inactive).

On to `CCOc1ccc(OCCC(=O)OCC(=O)Nc2ccc3c(c2)OCCO3)cc1`, for which the IC50 is 35.9 µM (inactive) in [2], 12.7 µM (inactive) at Steroidogenic factor 1 and 35.9 µM (inactive) in test [3].

Turning to `CC(=O)c1cccc(NC(=O)C(OC(=O)c2ccccc2NS(=O)(=O)c2cccs2)c2ccccc2)c1` (stereo not given), the IC50 in test [4], in test [5] and in test [6] was > 69.5 µM (inactive) each time.

Turning to `Cc1ccc(NC(=O)c2cc3c(s2)CCCC3)cc1S(=O)(=O)Nc1ccccc1Cl`, the IC50 in [4] and in [6] was > 69.5 µM (inactive) throughout.

For the compound `CCOc1ccc(Cl)cc1S(=O)(=O)n1nnc2ccccc21`, the IC50 in [7] was 3.56 µM (active); in test [9], 2.16 µM (active). Also, the EC50 in test [8] is > 53 µM (inactive).

`Cn1cc(C(=O)c2ccc(Cl)cc2Cl)cc1C(=O)NN=C(N)COc1ccc(Cl)cc1Cl`: the EC50 in [10] was > 120 µM (not active); in test [11] it was 0.927 µM (active); in [12], 24.3 µM (active); in test [13], 9.69 µM (active); at Streptokinase A, > 150 µM (not active); in the test on Streptococcus, 43.9 µM (active). Besides, the IC50 in [4] and in test [6] was > 69.5 µM (inactive) throughout.

Regarding `Cc1cc(C(=O)CSc2nnc(N)s2)c(C)n1C1CC1`, the IC50 (in the test “cells [14]”; in test [15]) was > 67.6 µM (inactive) in each case.

Take `NC(=O)c1c(NC(=O)C2CC=CCC2C(=O)O)sc2c1CCCCC2` (stereo not given): the AC50 at Caspase-6 was 5.79 µM (active).

As for `CC1CCc2c(sc(NC(=O)C3=COCCO3)c2C(N)=O)C1` (stereo not given), in test [1], the EC50 is > 67.5 µM (inactive).

Regarding `COc1ccccc1NC(=O)CN1CCN(CC(=O)Nc2ccc3c(c2)OCCO3)CC1`, the results for the IC50 (in [2]; at Steroidogenic factor 1; in test [3]) were 4.02 µM (active), 0.985 µM (active) and 35.9 µM (inactive), respectively.

On to `COc1ccc(C(=O)Nc2cc(=O)n(C)c(=O)n2C)cc1`, for which the results for the IC50 in [7] and in test [9] were < 0.368 µM (active) and > 20 µM (inactive), respectively. In addition, the EC50 in test [8] was > 53 µM (inactive).

For the compound `CC1CCC2(CC1)NC(=O)N(CC(=O)Nc1ccc3c(c1)OCCCO3)C2=O` (stereo not given), the IC50 is 6.2 µM (active) in [2], 1.02 µM (active) on Steroidogenic factor 1 and 35.9 µM (inactive) in test [3].

With `Cc1ccsc1C(=O)OCC(=O)c1cc(C)n(C)c1C`, the IC50 in the test “cells [14]” is > 67.6 µM (inactive); in test [15] it was > 0.278 µM (active).

`O=C(Cc1nnc(O)nc1O)N/N=C/c1ccccc1O`: the IC50 in “cells [16]” is > 29.9 µM (inactive). In addition, in “cells [17]”, the EC50 is > 29.9 µM (inactive).

For the compound `CNC(=O)C1CC(=O)N=C(N/N=C(\C)c2cccs2)S1` (stereo not given), the results for the IC50 in test [5] and in test [18] were > 69.5 µM (inactive) and > 23.2 µM (inactive), respectively.

On to `c1ccc(Nc2nc(-c3cccnc3)cs2)nc1`, for which the EC50 in [1] is > 67.6 µM (inactive).

The record behind these values is ChEMBL document CHEMBL1201862, “PubChem BioAssay data set” (2004).
